Assay results published in patent US12479847B2 (DANA-FARBER CANCER INSTITUTE, INC., priority 2019, dated 2025).

What was measured:
Experiment in all cases: KINOMEscan (ScanMAX) kinase profiling
Assay type in all cases: binding
panel of 468 kinases [1] = target: T1, panel of 468 kinases (Homo sapiens, UniProt Q9UQ88); conditions: CDC2L2; 1 μM; read-out: % control
T1 construct: purchased KINOMEscan (ScanMAX) service
T1 sequence (Q9UQ88 1-783): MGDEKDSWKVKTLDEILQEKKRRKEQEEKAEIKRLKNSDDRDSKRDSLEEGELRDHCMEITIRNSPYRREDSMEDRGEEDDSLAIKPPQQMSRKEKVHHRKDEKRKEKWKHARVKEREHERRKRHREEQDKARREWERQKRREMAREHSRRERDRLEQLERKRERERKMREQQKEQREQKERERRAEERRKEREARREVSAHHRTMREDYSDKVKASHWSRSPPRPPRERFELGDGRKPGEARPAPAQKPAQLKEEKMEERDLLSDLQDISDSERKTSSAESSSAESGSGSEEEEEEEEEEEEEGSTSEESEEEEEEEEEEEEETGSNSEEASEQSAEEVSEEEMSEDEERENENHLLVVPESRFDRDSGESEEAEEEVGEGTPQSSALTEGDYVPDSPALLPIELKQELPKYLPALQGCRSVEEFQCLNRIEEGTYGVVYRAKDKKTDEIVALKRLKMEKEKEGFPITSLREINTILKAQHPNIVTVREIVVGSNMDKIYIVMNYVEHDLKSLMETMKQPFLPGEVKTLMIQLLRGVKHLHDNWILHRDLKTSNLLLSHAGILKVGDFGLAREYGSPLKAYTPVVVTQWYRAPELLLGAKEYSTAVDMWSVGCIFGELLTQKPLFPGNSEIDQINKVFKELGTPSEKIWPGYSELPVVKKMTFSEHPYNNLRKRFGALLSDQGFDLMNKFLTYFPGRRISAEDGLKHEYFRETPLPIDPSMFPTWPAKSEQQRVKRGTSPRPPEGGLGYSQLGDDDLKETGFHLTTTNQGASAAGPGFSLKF

panel of 468 kinases [2] = target: T2, panel of 468 kinases (Homo sapiens, UniProt P37173); conditions: TGFBR2; 1 μM; read-out: % control
T2 construct: purchased KINOMEscan (ScanMAX) service
T2 sequence (P37173 23-567): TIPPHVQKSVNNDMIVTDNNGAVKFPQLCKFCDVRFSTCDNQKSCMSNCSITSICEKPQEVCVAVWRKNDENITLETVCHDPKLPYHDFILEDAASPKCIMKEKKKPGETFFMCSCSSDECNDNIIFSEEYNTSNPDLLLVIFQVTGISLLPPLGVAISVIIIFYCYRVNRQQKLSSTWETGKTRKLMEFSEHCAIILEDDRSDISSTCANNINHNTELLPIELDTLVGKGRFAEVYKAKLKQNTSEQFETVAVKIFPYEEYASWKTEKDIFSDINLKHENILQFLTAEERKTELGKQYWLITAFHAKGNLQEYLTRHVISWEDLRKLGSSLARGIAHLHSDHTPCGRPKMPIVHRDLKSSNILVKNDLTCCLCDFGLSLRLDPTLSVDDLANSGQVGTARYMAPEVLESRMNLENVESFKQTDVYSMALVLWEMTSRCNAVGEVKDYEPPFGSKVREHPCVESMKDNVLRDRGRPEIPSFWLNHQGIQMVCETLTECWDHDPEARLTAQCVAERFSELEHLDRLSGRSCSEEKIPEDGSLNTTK

panel of 468 kinases [3] = target: T3, panel of 468 kinases (Homo sapiens, UniProt Q08345); conditions: DDR1; 1 μM; read-out: % control
T3 construct: purchased KINOMEscan (ScanMAX) service
T3 sequence (Q08345 19-913): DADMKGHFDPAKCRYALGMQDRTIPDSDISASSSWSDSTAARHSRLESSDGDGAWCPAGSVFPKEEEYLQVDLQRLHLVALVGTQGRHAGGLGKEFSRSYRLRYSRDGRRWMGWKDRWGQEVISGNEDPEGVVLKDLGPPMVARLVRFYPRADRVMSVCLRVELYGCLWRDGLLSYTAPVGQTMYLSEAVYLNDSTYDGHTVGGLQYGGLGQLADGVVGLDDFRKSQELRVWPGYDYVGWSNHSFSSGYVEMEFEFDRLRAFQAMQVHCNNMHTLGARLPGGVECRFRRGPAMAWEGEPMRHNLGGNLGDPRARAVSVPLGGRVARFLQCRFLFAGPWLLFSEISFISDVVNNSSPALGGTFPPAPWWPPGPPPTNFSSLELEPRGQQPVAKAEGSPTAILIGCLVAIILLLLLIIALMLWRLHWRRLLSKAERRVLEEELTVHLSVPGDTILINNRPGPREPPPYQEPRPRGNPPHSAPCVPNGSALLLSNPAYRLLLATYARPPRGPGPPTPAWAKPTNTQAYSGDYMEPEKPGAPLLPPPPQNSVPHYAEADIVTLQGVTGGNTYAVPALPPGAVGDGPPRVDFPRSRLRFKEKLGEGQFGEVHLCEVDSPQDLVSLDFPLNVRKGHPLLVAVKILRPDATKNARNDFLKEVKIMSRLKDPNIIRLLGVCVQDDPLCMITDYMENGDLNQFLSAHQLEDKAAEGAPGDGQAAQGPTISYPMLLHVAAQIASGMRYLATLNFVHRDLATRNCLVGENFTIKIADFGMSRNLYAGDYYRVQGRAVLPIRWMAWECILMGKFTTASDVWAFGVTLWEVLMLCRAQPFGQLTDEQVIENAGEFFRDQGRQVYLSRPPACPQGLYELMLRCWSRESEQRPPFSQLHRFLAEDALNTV

panel of 468 kinases [4] = target: T4, panel of 468 kinases (Homo sapiens, UniProt Q13043); conditions: MST1; 1 μM; read-out: % control
T4 construct: purchased KINOMEscan (ScanMAX) service
T4 sequence (Q13043 1-487): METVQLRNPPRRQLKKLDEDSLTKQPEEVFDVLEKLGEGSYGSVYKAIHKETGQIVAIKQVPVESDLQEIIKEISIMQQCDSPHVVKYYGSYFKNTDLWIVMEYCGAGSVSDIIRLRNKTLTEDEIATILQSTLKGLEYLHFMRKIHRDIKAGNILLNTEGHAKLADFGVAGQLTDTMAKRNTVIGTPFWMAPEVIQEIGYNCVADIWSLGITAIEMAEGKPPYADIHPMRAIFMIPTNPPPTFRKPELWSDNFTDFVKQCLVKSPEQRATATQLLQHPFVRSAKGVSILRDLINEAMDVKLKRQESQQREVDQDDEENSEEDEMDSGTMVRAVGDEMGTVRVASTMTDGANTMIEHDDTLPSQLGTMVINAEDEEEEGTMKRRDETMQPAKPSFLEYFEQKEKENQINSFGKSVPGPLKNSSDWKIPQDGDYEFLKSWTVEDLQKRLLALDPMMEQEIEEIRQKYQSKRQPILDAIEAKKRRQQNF

panel of 468 kinases [5] = target: T5, panel of 468 kinases (Homo sapiens, UniProt P29322); conditions: EPHA8; 1 μM; read-out: % control
T5 construct: purchased KINOMEscan (ScanMAX) service
T5 sequence (P29322 28-1005): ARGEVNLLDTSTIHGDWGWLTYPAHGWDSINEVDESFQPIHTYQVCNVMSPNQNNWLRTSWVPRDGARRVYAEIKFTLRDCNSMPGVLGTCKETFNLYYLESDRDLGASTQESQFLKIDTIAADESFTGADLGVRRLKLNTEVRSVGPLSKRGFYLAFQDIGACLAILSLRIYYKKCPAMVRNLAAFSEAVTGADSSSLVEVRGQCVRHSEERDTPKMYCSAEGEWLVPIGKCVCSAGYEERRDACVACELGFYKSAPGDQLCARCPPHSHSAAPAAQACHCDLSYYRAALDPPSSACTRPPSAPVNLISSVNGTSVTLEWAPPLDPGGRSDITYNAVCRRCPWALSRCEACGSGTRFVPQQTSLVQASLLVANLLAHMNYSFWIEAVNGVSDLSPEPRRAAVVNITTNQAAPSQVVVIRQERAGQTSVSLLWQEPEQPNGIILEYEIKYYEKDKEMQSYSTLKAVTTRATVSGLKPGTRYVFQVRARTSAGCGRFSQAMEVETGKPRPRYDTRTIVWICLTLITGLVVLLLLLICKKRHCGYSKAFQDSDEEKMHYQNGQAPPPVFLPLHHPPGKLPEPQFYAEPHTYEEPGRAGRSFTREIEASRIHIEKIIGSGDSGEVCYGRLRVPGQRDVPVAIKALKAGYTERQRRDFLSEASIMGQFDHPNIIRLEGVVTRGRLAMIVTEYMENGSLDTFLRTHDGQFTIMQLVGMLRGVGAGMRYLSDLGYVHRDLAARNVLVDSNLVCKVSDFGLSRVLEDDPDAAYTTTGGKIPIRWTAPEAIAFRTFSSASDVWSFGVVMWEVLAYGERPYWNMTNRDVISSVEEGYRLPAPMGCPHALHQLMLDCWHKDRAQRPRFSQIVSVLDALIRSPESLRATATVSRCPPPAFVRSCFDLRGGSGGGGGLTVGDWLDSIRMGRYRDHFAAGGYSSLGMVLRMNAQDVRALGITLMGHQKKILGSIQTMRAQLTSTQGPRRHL

panel of 468 kinases [6] = target: T6, panel of 468 kinases (Homo sapiens, UniProt P42336, I800L); conditions: PIK3CA(I800L); 1 μM; read-out: % control
T6 construct: purchased KINOMEscan (ScanMAX) service
T6 sequence (P42336 whole entry I800L): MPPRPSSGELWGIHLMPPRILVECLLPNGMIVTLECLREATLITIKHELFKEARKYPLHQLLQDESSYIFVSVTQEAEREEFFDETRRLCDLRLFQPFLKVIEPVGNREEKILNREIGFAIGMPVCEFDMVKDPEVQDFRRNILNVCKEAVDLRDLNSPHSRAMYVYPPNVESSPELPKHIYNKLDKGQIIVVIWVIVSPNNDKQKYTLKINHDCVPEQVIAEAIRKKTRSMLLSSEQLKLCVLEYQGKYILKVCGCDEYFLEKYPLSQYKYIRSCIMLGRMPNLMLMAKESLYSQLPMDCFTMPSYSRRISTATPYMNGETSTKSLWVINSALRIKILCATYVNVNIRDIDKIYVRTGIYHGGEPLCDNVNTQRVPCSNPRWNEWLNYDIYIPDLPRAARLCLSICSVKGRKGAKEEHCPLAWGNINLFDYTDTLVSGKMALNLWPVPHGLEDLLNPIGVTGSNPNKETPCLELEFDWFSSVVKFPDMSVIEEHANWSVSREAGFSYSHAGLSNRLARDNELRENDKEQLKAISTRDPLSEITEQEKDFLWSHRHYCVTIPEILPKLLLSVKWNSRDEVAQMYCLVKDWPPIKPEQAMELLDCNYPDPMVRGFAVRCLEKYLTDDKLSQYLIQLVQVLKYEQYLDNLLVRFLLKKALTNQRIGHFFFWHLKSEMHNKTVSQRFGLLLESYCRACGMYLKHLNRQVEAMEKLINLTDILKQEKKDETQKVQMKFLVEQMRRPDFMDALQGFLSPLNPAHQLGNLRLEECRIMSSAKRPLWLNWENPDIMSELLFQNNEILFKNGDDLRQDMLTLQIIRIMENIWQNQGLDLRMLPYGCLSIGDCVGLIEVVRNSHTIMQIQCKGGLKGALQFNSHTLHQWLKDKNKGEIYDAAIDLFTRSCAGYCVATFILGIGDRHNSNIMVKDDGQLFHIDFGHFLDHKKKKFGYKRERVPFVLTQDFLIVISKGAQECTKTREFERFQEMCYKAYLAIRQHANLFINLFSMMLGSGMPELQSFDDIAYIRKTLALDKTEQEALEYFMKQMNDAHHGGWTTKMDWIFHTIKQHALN

panel of 468 kinases [7] = target: T7, panel of 468 kinases (Homo sapiens, UniProt O00238); conditions: BMPR1B; 1 μM; read-out: % control
T7 construct: purchased KINOMEscan (ScanMAX) service
T7 sequence (O00238 14-502): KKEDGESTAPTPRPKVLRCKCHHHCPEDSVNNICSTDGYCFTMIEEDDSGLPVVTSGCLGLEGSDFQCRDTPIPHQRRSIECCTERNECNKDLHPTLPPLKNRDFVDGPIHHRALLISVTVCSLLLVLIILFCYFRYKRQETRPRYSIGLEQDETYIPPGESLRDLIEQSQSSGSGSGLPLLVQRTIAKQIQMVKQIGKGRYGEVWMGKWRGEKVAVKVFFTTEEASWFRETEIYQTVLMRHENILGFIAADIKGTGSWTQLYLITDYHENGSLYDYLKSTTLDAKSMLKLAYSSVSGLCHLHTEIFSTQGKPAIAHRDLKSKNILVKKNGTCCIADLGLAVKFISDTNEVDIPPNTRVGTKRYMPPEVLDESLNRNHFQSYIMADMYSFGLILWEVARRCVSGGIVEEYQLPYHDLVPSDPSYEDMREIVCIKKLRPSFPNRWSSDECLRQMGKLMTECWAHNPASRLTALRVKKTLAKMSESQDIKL

## CNc1nc(Nc2ccc(S(=O)(=O)N3CCC(N4CCOCC4)CC3)cc2OC)nc2[nH]cc(Cl)c12 [Compound 12, 5-chloro-N2-(2-methoxy-4-((4-morpholinopiperidin-1-yl)sulfonyl)phenyl)-N4-methyl-7H-pyrrolo[2,3-d]pyrimidine-2,4-diamine]
Panel of 468 kinases [1]
  remaining binding at 1 µM: 100%
Panel of 468 kinases [2]
  remaining binding at 1 µM: 100%
Panel of 468 kinases [3]
  remaining binding at 1 µM: 100%
Panel of 468 kinases [4]
  remaining binding at 1 µM: 81%
Panel of 468 kinases [5]
  remaining binding at 1 µM: 100%
Panel of 468 kinases [6]
  remaining binding at 1 µM: 74%
Panel of 468 kinases [7]
  remaining binding at 1 µM: 76%

## CNc1nc(Nc2ccc(P3(=O)CCN(C4CCOCC4)CC3)cc2OC)nc2[nH]cc(Cl)c12 [Compound 77, 4-(4-((5-chloro-4-(methylamino)-7H-pyrrolo[2,3-d]pyrimidin-2-yl)amino)-3-methoxyphenyl)-1-(tetrahydro-2H-pyran-4-yl)-1,4-azaphosphinane 4-oxide]
Panel of 468 kinases [1]
  remaining binding at 1 µM: 100%
Panel of 468 kinases [2]
  remaining binding at 1 µM: 100%
Panel of 468 kinases [3]
  remaining binding at 1 µM: 100%
Panel of 468 kinases [4]
  remaining binding at 1 µM: 100%
Panel of 468 kinases [5]
  remaining binding at 1 µM: 100%
Panel of 468 kinases [6]
  remaining binding at 1 µM: 69%
Panel of 468 kinases [7]
  remaining binding at 1 µM: 80%

## CNc1nc(Nc2ccc(C(=O)N3CCC(N4CCOCC4)CC3)c3c2OCO3)nc2[nH]cc(Cl)c12 [Compound 75, (7-((5-chloro-4-(methylamino)-7H-pyrrolo[2,3-d]pyrimidin-2-yl)amino)benzo[d][1,3]dioxol-4-yl)(4-morpholinopiperidin-1-yl)methanone]
Panel of 468 kinases [1]
  remaining binding at 1 µM: 100%
Panel of 468 kinases [2]
  remaining binding at 1 µM: 100%
Panel of 468 kinases [3]
  remaining binding at 1 µM: 100%
Panel of 468 kinases [4]
  remaining binding at 1 µM: 100%
Panel of 468 kinases [5]
  remaining binding at 1 µM: 100%
Panel of 468 kinases [6]
  remaining binding at 1 µM: 87%
Panel of 468 kinases [7]
  remaining binding at 1 µM: 67%
